This passage reports Kd and Ki results from ChEMBL document CHEMBL1127710 (Bioorg Med Chem Lett, 1994).

Assay [1] has as its target T1, Phosphodiesterase 4 (Homo sapiens, UniProt P27815+Q08499+Q07343+Q08493). Kind of assay: Inhibition of rolipram binding to Phosphodiesterase 4. In kind it is protein assay.
For assay [2], the target named is T1, Phosphodiesterase 4. The experiment in a line: Inhibition of cAMP-specific Phosphodiesterase 4 (PDE IV). In kind it is protein assay.

Where only a bound is given, the exact number is not on record here.

The compound `O=C1CC(c2cc3c(c(OC4CCCC4)c2)OCCC3)CN1` (configuration not stated) displayed a Kd in assay [1] of 0.21 µM. In addition, the Ki in assay [2] worked out at 1.17 µM.
The corresponding values for `O=C1CC(c2ccc3c(c2)OC2(CCCCC2)O3)CN1` (configuration not stated) are 16.5 µM and 63.9 µM.
The corresponding values for `O=C1CC(c2ccc3c(c2)OCO3)CN1` (configuration not stated) are above 100 µM and above 100 µM.
The corresponding values for `O=C1CC(c2cc(OC3CCCC3)c3occc3c2)CN1` (configuration not stated) are 0.03 µM and 0.26 µM.
Take `O=C1CC(c2ccc3c(c2)OCCO3)CN1` (configuration not stated): the Kd in assay [1] is above 100 µM. This compound also returned a Ki in assay [2] above 100 µM.
`O=C1CC(c2cc3c(c(OC4CCCC4)c2)OCC3)CN1` (configuration not stated) had a Kd in assay [1] of 4 µM. The Ki in assay [2] came to 3.69 µM.

By Kd is commonly meant the constant that tells how readily two partners part at equilibrium. The term Ki denotes the equilibrium dissociation constant of an inhibitor or competing ligand from its target. Higher therefore signals a looser hold on the target.
